Experiment [1] deals with Mu-type opioid receptor (Rattus norvegicus) (UniProt P33535). Description: Inhibition of MOPr desensitization in wistar rat LC neuron cells assessed as reduction in the DAMGO induced desensitization incubated for 15 mins in the presence of GSK650394. The class given is functional, cell-based.
For experiment [2] the target is unchanged. Description: Inhibition of MOPr desensitization in wistar rat LC neuron cells assessed as reduction in the DAMGO induced desensitization incubated for 15 mins in the presence of Y-27632. The class given is functional, cell-based.

Molecules are shown by their SMILES. Active and inactive are the calls of the source. The calls are words filed in the database; no cut-off is given here.

Chain of Mu-type opioid receptor (Rattus norvegicus) (P33535 whole entry): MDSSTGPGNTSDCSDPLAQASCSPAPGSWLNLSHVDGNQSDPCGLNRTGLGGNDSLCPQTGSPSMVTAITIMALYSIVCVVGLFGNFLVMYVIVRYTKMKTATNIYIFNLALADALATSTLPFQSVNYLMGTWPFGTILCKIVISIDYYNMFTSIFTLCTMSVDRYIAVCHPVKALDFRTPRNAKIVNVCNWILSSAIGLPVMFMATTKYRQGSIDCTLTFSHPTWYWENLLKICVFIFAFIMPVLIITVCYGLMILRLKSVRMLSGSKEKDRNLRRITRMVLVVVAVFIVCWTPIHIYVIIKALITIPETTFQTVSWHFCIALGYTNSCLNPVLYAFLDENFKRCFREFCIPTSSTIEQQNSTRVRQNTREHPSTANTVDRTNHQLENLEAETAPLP

For the molecule `C[C@@H](N)[C@H]1CC[C@H](C(=O)Nc2ccncc2)CC1`, in experiment [1], the inhibition entry was “inactive”.

On to `O=C(O)c1ccc(-c2c[nH]c3ncc(-c4ccccc4)cc23)cc1C1CCCC1`, for which the inhibition entry in experiment [2] is “inactive”.

The values above are taken from ChEMBL document CHEMBL5705902, “Role of G Protein-Coupled Receptor Kinases 2 and 3 in μ-Opioid Receptor Desensitization and Internalization” (Mol Pharmacol, 2015).
